Measured values reported in US20040253308A1, “Surface-treated modafinil particles” (Barr Laboratories, Inc., priority 2003, published 2004).

Tests used:
[1] = test system: monkeys; conditions: single administration (Duteil et al.); cited from earlier work
[2] = test system: mice; conditions: single administration (Duteil et al.); cited from earlier work
[3] = Particle size determination (Hiac/Royco system); format: physicochemical; conditions: production lot used for FIG. 1 tablets
Procedure: Particle size can be determined by various methods known to those in the art, such as, but not limited to, laser particle size detectors. Particle size, as defined herein, is determined using a Hiac/Royco system, which includes the Model 9064 particle counter and the Model 3000A liquid syringe sampler (11801 Tech Road, Silver Spring, Md. 20904, U.S.A.).
Particle size was determined using a Hiac/Royco system, which includes the Model 9064 particle counter and the Model 3000A liquid syringe sampler (11801 Tech Road, Silver Spring, Md. 20904, U.S.A.). Samples were prepared in water saturated with modafinil. For each sample preparation, five consecutive readings were measured. The test was done in triplicate and the average was reported.

**Q.** With `NC(=O)C[S+]([O-])C(c1ccccc1)c1ccccc1` (stereo not shown) [modafinil, 2-(benzhydrylsulfinyl)acetamide] as the compound, how does the nocturnal activity [1] read?
**A.** increased nocturnal activity

**Q.** What about the locomotor activity [2] of the same compound?
**A.** increased locomotor activity

**Q.** And the median particle size ([3]; pretreated modafinil particles)?
**A.** 148 μm

**Q.** What about the “diameter exceeded by 5% of the total of pretreated modafinil particles” value [3] of the same compound?
**A.** 277 μm
